From patent US20220211684A1, “ANTIFUNGAL AGENTS FOR CANDIDA AURIS DECOLONIZATION” (Scynexis, Inc., priority 2019, published 2022)
Values after ≈ are worked out from the molar mass of the structure shown. Read-outs that look alike come from different tables or passages of the source.

Key:
[1] = test system: Candida auris; conditions: 100 isolates of Candida auris; cited from earlier work
[2] = clinical; set-up: species or system humans; conditions: human, in vivo, po
Source text: Print 2019 February PMID: 30478166). Such features are important for the treatment and prevention of fungal infections, as well as for achieving decolonization of susceptible fungal pathogens such as Candida auris.

[3] = in vivo; set-up: species or system Guinea pigs; conditions: guinea pig, po, 10 mg/kg
Description: (§1) Guinea pigs (n=5 per group) were randomized to receive 10 or 20 or 30 mg/kg of ibrexafungerp twice daily (BID) by gavage, or vehicle control. Animals received a single dose of prednisolone at 30 mg/kg, subcutaneously, one day prior and one and three days post infection to favor immuno-compromise of the animals and facilitate the development of Candida auris skin infection. A 100 μl cell suspension containing 10^8 blastospores of Candida auris was applied to an abraded area on the back of the animals. At Day 7, tissue biopsies were examined histologically, and tissue fungal burden was analyzed by colony counts from skin samples. PK bioanalysis of ibrexafungerp plasma concentrations was conducted following the final dose (Day 7).

[4] = test system: Candida auris; assay: Guinea pig model of Candida auris skin infection, skin burden; type: in vivo, Guinea pigs
Description: as §1

[5] = test system: Candida auris; assay: MIC50 against 102 Candida auris clinical and surveillance isolates from an outbreak in New York; type: cell-based; conditions: 97 isolates with variable or multidrug resistance; for MIC50: Candidozyma auris
Source text: Low MIC50 values for ibrexafungerp were found for 102 Candida auris clinical and surveillance isolates from an outbreak in New York. The isolates included C. auris with a variable resistance to antifungal drugs (resistance to one drug in one or two classes of antifungal drugs), multidrug-resistant isolates (resistance to two or more drugs between two classes of antifungal drugs), and pan-resistant isolates (resistance to two or more azoles, all tested echinocandins, and amphotericin B). For the 97 isolates that had variable or multidrug resistance to the other tested antifungal drugs (including fluconazole, voriconazole, itraconazole, isavuconazole, posaconazole, anidulafungin, caspofungin, micafungin, amphotericin B, and flucytosine), the ibrexafungerp MIC50 range was 0.06-0.5 μg/ml; the median and mode for ibrexafungerp MIC50 were each 0.5 μg/ml.

[6] = test system: Candida spp.; conditions: previous animal models of systemic Candida spp. infection; cited from earlier work

CC(C)[C@@H](C)[C@@]1(C)CC[C@]2(C)[C@H]3CC[C@@H]4[C@@]5(COC[C@@]4(C)[C@@H](OC[C@](C)(N)C(C)(C)C)[C@H](n4ncnc4-c4ccncc4)C5)C3=CC[C@@]2(C)[C@@H]1C(=O)O [ibrexafungerp, (1S,4aR,6aS,7R,8R,10aR,10bR,12aR,14R,15R)-15-[[(2R)-2-amino-2,3,3-trimethylbutyl]oxy]-8-[(1R)-1,2-dimethylpropyl]-14[5-(4-pyridinyl)-1H-1,2,4-triazol-1-yl]-1,6,6a,7,8,9,10,10a,10b,11,12,12a-dodecahydro-1,6a,8,10a-tetramethyl-4H-1,4a-propano-2H-phenanthro[1,2-c]pyran-7-carboxylic acid]
MIC50 [1]: 0.5 micrograms/ml
MIC90 [1]: 1 micrograms/ml
MIC overall mode [1]: 1 micrograms/ml
bioavailability [2]: > 20%
AUC(0-t) [3]: 2800 ng·h/mL
Tissue burdens of Candida auris (skin, colony counts) ([4]; 10, 20 or 30 mg/kg BID by gavage, Day 7, versus vehicle control): lower in all treatment groups versus in the vehicle control group
fungal elements in biopsy samples (histology) ([4]; Day 7 tissue biopsies, versus untreated control): No fungal elements were observed
clinical scores (crusting, inflammation) ([4]; among the active treatment groups): no significant differences
MIC50 range [5]: 0.06 to 0.5 µg/mL
MIC50 ([5]; read-out: MIC50 median): 0.5 µg/mL (≈ 0.685 µM)
MIC50 ([5]; read-out: MIC50 mode): 0.5 µg/mL (≈ 0.685 µM)
exposures needed to achieve efficacy [6]: ~11.2 µg·h/mL
